Assay results as given in US9226907B2 (priority 2008, dated 2016).

Assays:
[1] = higher drug concentrations associated with overdosage (280 μg/mL); cited from earlier work
[2] = in vivo
clinical = conditions: in vivo
Excerpt: Hydrocodone is structurally similar to other opioid analgesics (hydromorphone and oxycodone).

## CC(=O)Nc1ccc(O)cc1 [acetaminophen, 4′-hydroxyacetanilide]
[1]
  Bound to plasma proteins: 15-21%
[2]; human
  Variability in exposures (Cmax and AUC): not affected by ethanol coadministration
[2]
  AUC with different ethanol concentrations versus 0% ethanol: equivalent to that of Vicodin CR alone
clinical; human
  Effect of food on Cmax or AUC: no effect on Cmax or AUC
  Time by which steady state was achieved: ≤ 24 h
  Vd: 78 to 245 L
clinical
  Cmax and AUC versus dose: proportional to dose
